From US20230303623A1, “PEPTIDES AND METHODS OF USE” (REALTA LIFE SCIENCES, INC., priority 2020, published 2023)

Experiment: Total Antioxidant Capacity (TAC) assay
Details: highest peptide concentration 1.5 mM; compared to parent peptide
Outline: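 Copper(II)-to-copper(I) reduction kit used per manufacturer to measure antioxidant capacity of PIC1 peptide variants over a concentration range; activity reported at the highest peptide concentration, 1.5 mM.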

IAdLILEP(Sar)CCQERAA (IALILEPXCCQERAA; D-Leu; sarcosine; MOD_RES (3)..(3) D-amino acid; MOD_RES (8)..(8) Sarcosine) [PA-0122]
total antioxidant capacity, in words: slight increase in total antioxidant capacity
